Activity calls are given as the source filed them. No cut-off for these calls is given here.
Columns and labels:
[1] = Toxicity in Balb/c mouse implanted with mouse 4T1 cells assessed as liver lesions at 50 mg/kg administered intratumorally every four days for 14 days by H&E staining based histopathological analysis; assay type: organism-based; conditions: in vivo, other, 336 h, route it(Intratumoral), time 14 day
[2] = tested on: 4T1; test: Antitumor activity aginst mouse 4T1 cells implanted in Balb/c mouse assessed as nuclei shrinkage at 50 mg/kg, ip administered every two days for 14 days; assay type: functional, organism-based; conditions: time 14.0 day
[3] = tested on: MDA-MB-231; test: Induction of apoptosis in human MDA-MB-231 cells assessed as change in membrane osmotic transport capacity; assay type: functional, cell-based
[4] = Drug metabolism in Balb/c mouse liver implanted with mouse 4T1 cells assessed as 2-methyl hydroxylation of parent compound causing metabolite formation by LC-MS analysis; assay type: ADME, tissue-based
[5] = Acute toxicity in mouse assessed as death rate ratio at 300 mg/kg, ip measured over 14 days; assay type: organism-based; conditions: in vivo, 336 h, time 14 day
[6] = tested on: 4T1; test: Antitumor activity against mouse 4T1 cells xenografted in Balb/c mouse assessed as shrinkage of nucleus at 200 mg/kg administered topically over the tumor surface every two days for 14 days in the presence of cyanoacrylate; assay type: functional, organism-based; conditions: route top, time 14.0 day
[7] = Toxicity in Balb/c mouse implanted with mouse 4T1 cells assessed as heart lesions at 50 mg/kg, ip administered every two days for 14 days by H&E staining based histopathological analysis; assay type: organism-based; conditions: in vivo, 336 h, time 14 day
[8] = tested on: 4T1; test: Antitumor activity against mouse 4T1 cells implanted in Balb/c mouse assessed as TUNEL positive cells at 50 mg/kg, ip administered every two days for 14 days by TUNEL staining analysis (reference value: 6.55%); assay type: functional; conditions: time 14 day
[9] = tested on: 4T1; test: Antitumor activity against mouse 4T1 cells xenografted in Balb/c mouse assessed as disordered nuclei at 200 mg/kg administered topically over the tumor surface every two days for 14 days in the presence of cyanoacrylate; assay type: functional, organism-based; conditions: route top, time 14.0 day
[10] = Acute toxicity in mouse assessed as animal death at 5000 mg/kg, po; assay type: organism-based; conditions: in vivo
[11] = tested on: MDA-MB-231; test: Induction of apoptosis in human MDA-MB-231 cells assessed as increase in HTRA2/omi level at 100 nM incubated for 48 hrs; assay type: functional, cell-based
[12] = Toxicity in Balb/c mouse implanted with mouse 4T1 cells assessed as lung lesions at 50 mg/kg administered intratumorally every four days for 14 days by H&E staining based histopathological analysis; assay type: organism-based; conditions: in vivo, other, 336 h, route it(Intratumoral), time 14 day
[13] = Toxicity in Balb/c mouse implanted with mouse 4T1 cells assessed as spleen lesions at 50 mg/kg administered intratumorally every four days for 14 days by H&E staining based histopathological analysis; assay type: organism-based; conditions: in vivo, other, 336 h, route it(Intratumoral), time 14 day
[14] = tested on: 4T1; test: Antitumor activity against mouse 4T1 cells implanted in Balb/c mouse assessed as tumor growth inhibition at 50 mg/kg administered intratumorally every four days for 14 days in the presence of liquid cyanoacrylate relative to control; assay type: functional; conditions: 4T1, 336 h, route it(Intratumoral), time 14 day, read-out: TGI
[15] = Acute toxicity in mouse assessed as death rate ratio at 238 mg/kg, ip measured over 14 days; assay type: organism-based; conditions: in vivo, 336 h, time 14 day
[16] = tested on: MDA-MB-231; test: Induction of apoptosis in human MDA-MB-231 cells assessed as deep cytoplasm at 1 uM incubated for 24 hrs by transmission electron microscopic analysis; assay type: functional, cell-based
[17] = Toxicity in Balb/c mouse implanted with mouse 4T1 cells assessed as spleen lesions at 50 mg/kg administered intratumorally every four days for 14 days in the presence of liquid cyanoacrylate by H&E staining based histopathological analysis; assay type: organism-based; conditions: in vivo, other, 336 h, route it(Intratumoral), time 14 day
[18] = tested on: MDA-MB-231; test: Induction of apoptosis in human MDA-MB-231 cells assessed as decrease in Bcl-2 expression at 0.5 to 3 times of IC50 concentration by Western blot analysis; assay type: functional, cell-based
[19] = Toxicity in Balb/c mouse xenografted with mouse 4T1 cells assessed as lung lesions at 200 mg/kg administered topically over the tumor surface every two days for 14 days in the presence of cyanoacrylate by H&E staining based histopathological analysis; assay type: organism-based; conditions: in vivo, topical_or_ocular, 336 h, route top, time 14 day
[20] = tested on: 4T1; test: Antitumor activity against mouse 4T1 cells xenografted in Balb/c mouse assessed as tumor growth inhibition at 50 mg/kg, ip administered every two days for 14 days; assay type: functional; parameters: scale not given: the % may be the effect or the level left; conditions: time 14 day
[21] = Toxicity in Balb/c mouse xenografted with mouse 4T1 cells assessed as kidney lesions at 200 mg/kg administered topically over the tumor surface every two days for 14 days in the presence of cyanoacrylate by H&E staining based histopathological analysis; assay type: organism-based; conditions: in vivo, topical_or_ocular, 336 h, route top, time 14 day
[22] = Drug metabolism in Balb/c mouse tumor implanted with mouse 4T1 cells assessed as dechlorination of parent compound causing metabolite formation by LC-MS analysis; assay type: ADME, tissue-based, Neoplasm
[23] = Toxicity in Balb/c mouse implanted with mouse 4T1 cells assessed as effect on body weight at 50 mg/kg administered intratumorally every four days for 14 days in the presence of liquid cyanoacrylate; assay type: organism-based; conditions: in vivo, other, 336 h, route it(Intratumoral), time 14 day
[24] = tested on: MDA-MB-231; test: Induction of apoptosis in human MDA-MB-231 cells assessed as increase in pro-caspase 3 level at 100 nM incubated for 48 hrs; assay type: functional, cell-based
[25] = tested on: MDA-MB-231; test: Induction of apoptosis in human MDA-MB-231 cells assessed as increase in caspase 3 expression at 1 uM incubated for 24 hrs by Western blot analysis; assay type: functional, cell-based
[26] = Drug metabolism in Balb/c mouse spleen implanted with mouse 4T1 cells assessed as dechlorination of parent compound causing metabolite formation by LC-MS analysis; assay type: ADME, tissue-based
[27] = tested on: MDA-MB-231; test: Antiproliferative activity against human MDA-MB-231 cells assessed as inhibition of cell growth by MTT assay; assay type: functional, cell-based
[28] = tested on: MDA-MB-231; test: Induction of apoptosis in human MDA-MB-231 cells assessed as increase in catalase level at 100 nM incubated for 48 hrs; assay type: functional, cell-based
[29] = tested on: 4T1; test: Antitumor activity against mouse 4T1 cells xenografted in Balb/c mouse assessed as TUNEL positive cells at 200 mg/kg administered topically over the tumor surface every two days for 14 days in the presence of cyanoacrylate by TUNEL staining analysis (reference value: 21.78%); assay type: functional; conditions: route top, time 14 day
[30] = Acute toxicity in mouse assessed as death rate ratio at 600 mg/kg, ip measured over 14 days; assay type: organism-based; conditions: in vivo, 336 h, time 14 day
[31] = tested on: HeLa; test: Antiproliferative activity against human HeLa cells assessed as inhibition of cell growth by MTT assay; assay type: functional, cell-based
[32] = Drug metabolism in Balb/c mouse liver implanted with mouse 4T1 cells assessed as dechlorination of parent compound causing metabolite formation by LC-MS analysis; assay type: ADME, tissue-based
[33] = tested on: 4T1; test: Antitumor activity against mouse 4T1 cells xenografted in Balb/c mouse assessed as tumor growth inhibition at 200 mg/kg administered topically over the tumor surface every two days for 14 days in the presence of cyanoacrylate relative to control; assay type: functional; conditions: 4T1, 336 h, route top, time 14 day, read-out: TGI
[34] = tested on: MDA-MB-231; test: Induction of apoptosis in human MDA-MB-231 cells assessed as increase in caspase 9 expression at 0.5 to 3 times of IC50 concentration by Western blot analysis; assay type: functional, cell-based
[35] = tested on: 4T1; test: Antitumor activity against mouse 4T1 cells implanted in Balb/c mouse assessed as tumor growth inhibition by measuring T/C ratio at 50 mg/kg administered intratumorally every four days for 14 days in the presence of liquid cyanoacrylate; assay type: functional; conditions: route it(Intratumoral), time 14 day
[36] = tested on: 4T1; test: Antitumor activity against mouse 4T1 cells implanted in Balb/c mouse assessed as TUNEL positive cells at 50 mg/kg administered intratumorally every four days for 14 days by TUNEL staining analysis (reference value: 6.55%); assay type: functional; conditions: route it(Intratumoral), time 14 day

Q: With `Cc1[nH]c2ccccc2c1C1=C(Cl)C(=O)C(Cl)=C(N2CCOCC2)C1=O` as the compound, how does the Activity [1] read?
A: Non-Toxic

Q: And the Activity [2]?
A: Active

Q: What about the Activity [3] of the same compound?
A: Active

Q: What about the Drug metabolism [4] of the same compound?
A: Metabolite_Detected

Q: And the Ratio [5]?
A: 0.33

Q: And the Activity [6]?
A: Active

Q: What about the Activity [7] of the same compound?
A: Non-Toxic

Q: What about the Activity [8] of the same compound?
A: 19.64%

Q: And the Activity [9]?
A: Active

Q: And the Activity [10]?
A: Non-Toxic

Q: And the Activity [11]?
A: Active

Q: And the Activity [12]?
A: Non-Toxic

Q: What about the Activity [13] of the same compound?
A: Non-Toxic

Q: What about the inhibition in vivo at 50 mg/kg [14] of the same compound?
A: 49.8%

Q: What about the Ratio [15] of the same compound?
A: 0.17

Q: What about the Activity [16] of the same compound?
A: Active

Q: And the Activity [17]?
A: Non-Toxic

Q: What about the Activity [18] of the same compound?
A: Active

Q: What about the Activity [19] of the same compound?
A: Non-Toxic

Q: And the Activity [20]?
A: 36%

Q: And the Activity [21]?
A: Non-Toxic

Q: And the Drug metabolism [22]?
A: Metabolite_Detected

Q: And the Activity [23]?
A: Non-Toxic

Q: What about the Activity [24] of the same compound?
A: Active

Q: What about the Activity [25] of the same compound?
A: Active

Q: And the Drug metabolism [26]?
A: Metabolite_Detected

Q: What about the IC50 [27] of the same compound?
A: 70 nM

Q: What about the Activity [28] of the same compound?
A: Active

Q: And the Activity [29]?
A: 64.71%

Q: What about the Ratio [30] of the same compound?
A: 1

Q: And the IC50 [31]?
A: 320 nM

Q: And the Drug metabolism [32]?
A: Metabolite_Detected

Q: What about the inhibition in vivo at 200 mg/kg [33] of the same compound?
A: 38%

Q: And the Activity [34]?
A: Active

Q: And the T/C [35]?
A: 42%

Q: And the Activity [36]?
A: 91.48%
